From patent publication US8058295B2, “Cystic fibrosis transmembrane conductance regulator protein inhibitors and uses thereof” (The Regents of the University of California, priority 2002, dated 2011)

System: STa toxin-induced fluid secretion
Design: species or system rats
Conditions: rat, in vivo

## O=C(O)c1ccc(/C=C2\SC(=S)N(c3cccc(C(F)(F)F)c3)C2=O)cc1 [CFTRinh-172, 3-[(3-trifluoromethyl)phenyl]-5-[(4-carboxyphenyl)methylene]-2-thioxo-4-thiazolidinone]
  inhibition of intestinal fluid secretion: ~75%
